Measurements taken from US9682925B2, “Cyclopropaneamine compound” (TAKEDA PHARMACEUTICAL COMPANY LIMITED, priority 2011, dated 2017).
Counter-ions that a name gives are not always drawn.

Legend:
Assay type in all cases: biochemical
human LSD1(171-852) = biological target: T1, human LSD1(171-852) (Homo sapiens, UniProt O60341); experiment: Measurement of LSD1 inhibitory activity (time-resolved fluorescence, biotin-histone H3 mono methylated K4 peptide); details: read-out: LSD1 IC50 value
T1 construct: to give hLSD1(171-852) purified product; made in house; host or cells: Escherichia coli C43(DE3) pLysS

MAO-A = biological target: T2, MAO-A (Homo sapiens, UniProt P21397); experiment: Measurement of MAO-A inhibitory activity (MAO-Glo Assay)
T2 construct: purchased Sigma-Aldrich Co. LLC
T2 sequence (P21397 1-527): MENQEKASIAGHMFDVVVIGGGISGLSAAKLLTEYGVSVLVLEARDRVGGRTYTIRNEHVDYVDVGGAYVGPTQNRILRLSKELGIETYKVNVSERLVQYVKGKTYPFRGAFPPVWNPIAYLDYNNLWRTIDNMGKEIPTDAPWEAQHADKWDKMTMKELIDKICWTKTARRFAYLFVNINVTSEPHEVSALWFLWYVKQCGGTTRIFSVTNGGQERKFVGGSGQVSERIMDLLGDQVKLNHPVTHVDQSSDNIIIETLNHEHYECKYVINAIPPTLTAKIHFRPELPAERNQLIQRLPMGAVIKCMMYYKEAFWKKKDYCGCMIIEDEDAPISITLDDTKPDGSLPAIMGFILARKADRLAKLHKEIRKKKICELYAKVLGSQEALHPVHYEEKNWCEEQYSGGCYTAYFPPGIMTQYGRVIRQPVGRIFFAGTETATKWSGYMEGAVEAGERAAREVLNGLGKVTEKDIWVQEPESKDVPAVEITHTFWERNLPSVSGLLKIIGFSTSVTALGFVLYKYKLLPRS
How it was run: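 Luminescent MAO-Glo read-out: % inhibition computed from counts relative to enzyme-only control and enzyme-free blank. Compound and 400 ng MAO-A in HEPES pH 7.5 with 5% glycerol stood 10 min at room temperature before MAO substrate (160 μM stock) started a 60 min reaction.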

MAO-B = biological target: T3, MAO-B (Homo sapiens, UniProt P27338); experiment: Measurement of MAO-B inhibitory activity (MAO-Glo Assay)
T3 construct: purchased Sigma-Aldrich Co. LLC
T3 sequence (P27338 1-520): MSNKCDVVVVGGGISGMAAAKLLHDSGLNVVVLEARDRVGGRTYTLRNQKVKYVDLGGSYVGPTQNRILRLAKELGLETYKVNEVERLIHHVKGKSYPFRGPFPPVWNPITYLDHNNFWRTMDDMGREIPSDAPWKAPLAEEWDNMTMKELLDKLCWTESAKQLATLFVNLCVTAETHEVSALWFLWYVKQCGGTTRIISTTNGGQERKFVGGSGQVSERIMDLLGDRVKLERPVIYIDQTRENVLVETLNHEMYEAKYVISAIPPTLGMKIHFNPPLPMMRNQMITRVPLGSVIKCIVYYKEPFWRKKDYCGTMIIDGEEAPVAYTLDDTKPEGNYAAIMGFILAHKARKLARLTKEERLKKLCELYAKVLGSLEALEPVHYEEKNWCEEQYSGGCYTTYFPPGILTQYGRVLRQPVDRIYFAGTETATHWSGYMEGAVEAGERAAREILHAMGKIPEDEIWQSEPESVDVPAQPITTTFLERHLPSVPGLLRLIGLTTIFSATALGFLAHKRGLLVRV
How it was run: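 Percent inhibition was calculated from luciferin-based luminescence, corrected with a blank lacking enzyme and a control lacking compound. The reaction ran 60 min at room temperature after adding MAO substrate (16 µM as added). This followed a 10 min compound–enzyme preincubation in HEPES pH 7.5 buffer.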

SMILES | IC50 (human LSD1(171-852)) [nM] | IC50 (MAO-A) [µM] | IC50 (MAO-B) [µM]
Cc1cc(NC(=O)c2ccccc2)ccc1[C@@H]1C[C@H]1NCC1CC1 (relative stereo) [Example 82, N-(4-{trans-2-[(cyclopropylmethyl)amino]cyclopropyl}-3-methylphenyl)benzamide hydrochloride] | < 100 | > 10 | > 10
CN(C)c1cccc(C(=O)Nc2ccc([C@@H]3C[C@H]3NCC3CC3)cc2)c1 (relative stereo) [Example 83, N-(4-{trans-2-[(cyclopropylmethyl)amino]cyclopropyl}phenyl)-3-(dimethylamino)benzamide bis(trifluoroacetate)] | < 100 | > 10 | > 10
CN(C)c1ccc(C(=O)Nc2ccc([C@@H]3C[C@H]3NCC3CC3)cc2)cc1 (relative stereo) [Example 84, N-(4-{trans-2-[(cyclopropylmethyl)amino]cyclopropyl}-phenyl)-4-(dimethylamino)-benzamide] | < 100 | > 10 | > 10
O=C(Nc1ccc([C@@H]2C[C@H]2NCC2CC2)cc1)c1ccc2c(c1)CCCC2 (relative stereo) [Example 85, N-(4-{trans-2-[(cyclopropylmethyl)amino]cyclopropyl}-phenyl)-5,6,7,8-tetrahydronaphtha-lene-2-carboxamide] | < 100 | 9.1 | 4.9
CC1=NN(c2ccc(C(=O)Nc3ccc([C@@H]4C[C@H]4NCC4CC4)cc3)cc2)C(=O)C1 (relative stereo) [Example 86, N-(4-{trans-2-[(cyclopropylmethyl)amino]cyclopropyl}-phenyl)-4-(3-methyl-5-oxo-4,5-dihydro-1H-pyrazol-1-yl)benzamide] | 1000 | > 10 | > 10
CS(=O)(=O)c1ccc(C(=O)Nc2ccc([C@@H]3C[C@H]3NCC3CC3)cc2)cc1 (relative stereo) [Example 87, N-(4-{trans-2-[(cyclopropylmethyl)amino]cyclopropyl}-phenyl)-4-(methylsulfonyl)-benzamide] | < 100 | > 10 | > 10
NS(=O)(=O)c1ccc(C(=O)Nc2ccc([C@@H]3C[C@H]3NCC3CC3)cc2)cc1 (relative stereo) [Example 88, N-(4-{trans-2-[(cyclopropylmethyl)amino]cyclopropyl}-phenyl)-4-sulfamoylbenzamide] | < 100 | > 10 | > 10
O=C(Nc1ccc([C@@H]2C[C@H]2NCC2CC2)cc1)c1ccc(C2CCCCC2)cc1 (relative stereo) [Example 89, 4-cyclohexyl-N-(4-{trans-2-[(cyclopropylmethyl)amino]cyclopropyl}-phenyl)benzamide] | 100 | > 10 | > 10
O=C(Nc1ccc([C@@H]2C[C@H]2NCC2CC2)cc1)c1ccc2ncsc2c1 (relative stereo) [Example 90, N-(4-{trans-2-[(cyclopropylmethyl)amino]cyclopropyl}-phenyl)-1,3-benzothiazole-6-carboxamide] | < 100 | > 10 | > 10
CS(=O)(=O)c1cccc(C(=O)Nc2ccc([C@@H]3C[C@H]3NCC3CC3)cc2)c1 (relative stereo) [Example 91, N-(4-{trans-2-[(cyclopropylmethyl)amino]cyclopropyl}-phenyl)-3-(methylsulfonyl)-benzamide] | < 100 | > 10 | > 10
O=C(Nc1ccc([C@@H]2C[C@H]2NCC2CC2)cc1)c1ccc(-n2ccnc2)cc1 (relative stereo) [Example 92, N-(4-{trans-2-[(cyclopropylmethyl)-amino]cyclopropyl}-phenyl)-4-(1H-imidazol-1-yl)benzamide] | < 100 | 7.9 | > 10
O=C(Nc1ccc([C@@H]2C[C@H]2NCC2CC2)cc1)c1cc(-c2ccccc2)on1 (relative stereo) [Example 93, N-(4-{trans-2-[(cyclopropylmethyl)-amino]cyclopropyl}-phenyl)-5-phenyl-1,2-oxazole-3-carboxamide] | < 100 | > 10 | > 10
O=C(Nc1ccc([C@@H]2C[C@H]2NCC2CC2)cc1)c1ccc(-n2cccn2)cc1 (relative stereo) [Example 94, N-(4-{trans-2-[(cyclopropylmethyl)-amino]cyclopropyl}-phenyl)-4-(1H-pyrazol-1-yl)benzamide] | < 100 | > 10 | > 10
O=C(Nc1ccc([C@@H]2C[C@H]2NCC2CC2)cc1)c1ccc(-c2cnco2)cc1 (relative stereo) [Example 95, N-(4-{trans-2-[(cyclopropylmethyl)-amino]cyclopropyl}-phenyl)-4-(1,3-oxazol-5-yl)benzamide] | < 100 | > 10 | > 10
O=C(Nc1ccc([C@@H]2C[C@H]2NCC2CC2)cc1)c1ccc(-c2ccncc2)cc1 (relative stereo) [Example 96, N-(4-{trans-2-[(cyclopropylmethyl)-amino]cyclopropyl}-phenyl)-4-(pyridin-4-yl)benzamide] | < 100 | > 10 | > 10
O=C(Nc1ccc([C@@H]2C[C@H]2NCC2CC2)cc1)c1ccc2nc(-c3ccsc3)[nH]c2c1 (relative stereo) [Example 97, N-(4-{trans-2-[(cyclopropylmethyl)-amino]cyclopropyl}-phenyl)-2-(3-thienyl)-1H-benzimidazole-6-carboxamide] | < 100 | > 10 | > 10
O=C(Nc1ccc([C@@H]2C[C@H]2NCC2CC2)cc1)c1ccc2nc(-c3ccco3)[nH]c2c1 (relative stereo) [Example 98, N-(4-{trans-2-[(cyclopropylmethyl)-amino]cyclopropyl}-phenyl)-2-(2-furyl)-1H-benzimidazole-6-carboxamide] | < 100 | > 10 | > 10
O=C(Nc1ccc([C@@H]2C[C@H]2NCC2CC2)cc1)c1ccc2[nH]ncc2c1 (relative stereo) [Example 99, N-(4-{trans-2-[(cyclopropylmethyl)-amino]cyclopropyl}-phenyl)-1H-indazole-5-carboxamide] | < 100 | > 10 | > 10
O=C(Nc1ccc([C@@H]2C[C@H]2NCC2CC2)cc1)c1cccc(-n2cnnn2)c1 (relative stereo) [Example 100, N-(4-{trans-2-[(cyclopropylmethyl)-amino]cyclopropyl}-phenyl)-3-(1H-tetrazol-1-yl)benzamide] | < 100 | > 10 | > 10
Cc1nc(-c2cccc(C(=O)Nc3ccc([C@@H]4C[C@H]4NCC4CC4)cc3)c2)cs1 (relative stereo) [Example 101, N-(4-{trans-2-[(cyclopropylmethyl)-amino]cyclopropyl}-phenyl)-3-(2-methyl-1,3-thiazol-4-yl)benzamide] | < 100 | > 10 | > 10
O=C(Nc1ccc([C@@H]2C[C@H]2NCC2CC2)cc1)c1ccc(-c2nnn[nH]2)cc1 (relative stereo) [Example 102, N-(4-{trans-2-[(cyclopropylmethyl)-amino]cyclopropyl}-phenyl)-4-(1H-tetrazol-5-yl)benzamide] | 200 | > 10 | > 10
O=C(Nc1ccc([C@@H]2C[C@H]2NCC2CC2)cc1)c1coc(-c2ccccc2)n1 (relative stereo) [Example 103, N-(4-{trans-2-[(cyclopropylmethyl)-amino]cyclopropyl}-phenyl)-2-phenyl-1,3-oxazole-4-carboxamide] | < 100 | > 10 | > 10
O=C(Nc1ccc([C@@H]2C[C@H]2NCC2CC2)cc1)c1cnc(-c2ccccc2)o1 (relative stereo) [Example 104, N-(4-{trans-2-[(cyclopropylmethyl)-amino]cyclopropyl}-phenyl)-2-phenyl-1,3-oxazole-5-carboxamide] | < 100 | > 10 | > 10
